Results: article PMC3593249 (Biochemical pharmacology, 2013)
Values joined by “and” are separate entries in the source; they are usually repeats but may differ in a detail not shown here. Equal values may be shown once.

Key:
α7 nAChR = conditions: cited from earlier work
α7 nAChR S36G mutant [1] = molecular target: T1, α7 nAChR S36G mutant (Homo sapiens, UniProt P36544, S58G); experiment: Residual desensitization; type: cell-based; conditions: read-out: IC50 (RD curve), potency for producing long-lasting desensitization, 12 s applications
α7 nAChR S36I mutant [2] = molecular target: T2, α7 nAChR S36I mutant (Homo sapiens, UniProt P36544, S58I); experiment: Residual desensitization; type: cell-based; conditions: read-out: IC50 (RD curve), potency for producing long-lasting desensitization, 12 s applications
α7 nAChR S36A mutant [3] = molecular target: T3, α7 nAChR S36A mutant (Homo sapiens, UniProt P36544, S58A); experiment: Concentration-response curves; type: cell-based; conditions: for Imax: maximal response relative to the maximal response from ACh (ACh = 1); for EC50: net charge CRC, parenthetical = curve-fit error
WT α7 nAChR [4] = molecular target: T4, WT α7 nAChR (Homo sapiens, UniProt P36544); experiment: Induction of Ds: 30 µM PNU-120596 applied after 5-minute drug bath; type: cell-based; conditions: for desensitized state after high-concentration incubation (PNU-120596 response): high concentration: BA 300 µM, 4MeBA 100 µM
α7 nAChR S36C mutant [5] = molecular target: T5, α7 nAChR S36C mutant (Homo sapiens, UniProt P36544, S58C); experiment: Concentration-response curves; type: cell-based; conditions: for Imax: maximal response relative to the maximal response from ACh (ACh = 1); for EC50: net charge CRC, parenthetical = curve-fit error
WT α7 nAChR [6] = molecular target: T4, WT α7 nAChR; experiment: Concentration-response curves; type: cell-based; conditions: for Imax: maximal response relative to the maximal response from ACh (ACh = 1); for EC50: net charge CRC, potency for agonism, parenthetical = curve-fit error
α7 nAChR S36V mutant [7] = molecular target: T6, α7 nAChR S36V mutant (Homo sapiens, UniProt P36544, S58V); experiment: Residual desensitization; type: cell-based; conditions: read-out: IC50 (RD curve), potency for producing long-lasting desensitization, 12 s applications
α7 nAChR S36G mutant [8] = molecular target: T1, α7 nAChR S36G mutant; type: cell-based; conditions: for Imax: maximal response relative to the maximal response from ACh (ACh = 1); for EC50: net charge CRC, parenthetical = curve-fit error
α7 nAChR S36T mutant [9] = molecular target: T7, α7 nAChR S36T mutant (Homo sapiens, UniProt P36544, S58T); experiment: Residual desensitization; type: cell-based; conditions: read-out: IC50 (RD curve), potency for producing long-lasting desensitization, 12 s applications
α7 nAChR S36A mutant [10] = molecular target: T3, α7 nAChR S36A mutant; experiment: Residual desensitization; type: cell-based; conditions: read-out: IC50 (RD curve), potency for producing long-lasting desensitization, 12 s applications
α7 nAChR S36I mutant [11] = molecular target: T2, α7 nAChR S36I mutant; experiment: Concentration-response curves; type: cell-based; conditions: for Imax: maximal response relative to the maximal response from ACh (ACh = 1); for EC50: net charge CRC, parenthetical = curve-fit error
WT α7 nAChR [12] = molecular target: T4, WT α7 nAChR; experiment: Residual desensitization; type: cell-based; conditions: for IC50: read-out: IC50 (RD curve), potency for producing long-lasting desensitization, 12 s applications
α7 nAChR S36C mutant [13] = molecular target: T5, α7 nAChR S36C mutant; experiment: Residual desensitization; type: cell-based; conditions: read-out: IC50 (RD curve), potency for producing long-lasting desensitization, 12 s applications
α7 nAChR S36T mutant [14] = molecular target: T7, α7 nAChR S36T mutant; experiment: Concentration-response curves; type: cell-based; conditions: for Imax: maximal response relative to the maximal response from ACh (ACh = 1); for EC50: net charge CRC, parenthetical = curve-fit error
α7 nAChR S36V mutant [15] = molecular target: T6, α7 nAChR S36V mutant; experiment: Concentration-response curves; type: cell-based; conditions: for Imax: maximal response relative to the maximal response from ACh (ACh = 1); for EC50: net charge CRC, parenthetical = curve-fit error
α7 nAChR S36G mutant [16] = molecular target: T1, α7 nAChR S36G mutant; experiment: 5-minute bath incubation, 1 mM ACh probe and post-control ACh applications; type: cell-based; conditions: 30 µM drug bath, 5 minutes, then 1 mM ACh probe
WT α7 nAChR [17] = molecular target: T4, WT α7 nAChR; experiment: as above; type: cell-based

T2 sequence (P36544 23-502 S58I): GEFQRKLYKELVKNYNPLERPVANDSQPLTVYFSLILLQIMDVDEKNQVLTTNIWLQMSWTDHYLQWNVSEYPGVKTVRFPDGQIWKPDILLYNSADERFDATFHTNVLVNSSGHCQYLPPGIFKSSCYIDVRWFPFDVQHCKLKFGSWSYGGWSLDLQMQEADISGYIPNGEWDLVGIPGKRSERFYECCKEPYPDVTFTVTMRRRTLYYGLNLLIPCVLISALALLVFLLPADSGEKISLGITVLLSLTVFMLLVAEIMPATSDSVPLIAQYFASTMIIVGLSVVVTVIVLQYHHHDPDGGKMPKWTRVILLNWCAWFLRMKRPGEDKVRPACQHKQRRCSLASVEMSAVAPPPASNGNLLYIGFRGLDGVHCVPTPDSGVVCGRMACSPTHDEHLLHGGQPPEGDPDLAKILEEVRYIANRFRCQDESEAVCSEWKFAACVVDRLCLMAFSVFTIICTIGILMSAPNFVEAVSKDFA
T3 sequence (P36544 23-502 S58A): as the sequence (P36544 23-502 S58I) above, with I36A counted along it
T4 sequence (P36544 23-502): as the sequence (P36544 23-502 S58I) above, with I36S counted along it
T7 sequence (P36544 23-502 S58T): as the sequence (P36544 23-502 S58I) above, with I36T counted along it
T5 sequence (P36544 23-502 S58C): as the sequence (P36544 23-502 S58I) above, with I36C counted along it
T6 sequence (P36544 23-502 S58V): as the sequence (P36544 23-502 S58I) above, with I36V counted along it
T1 sequence (P36544 23-502 S58G): as the sequence (P36544 23-502 S58I) above, with I36G counted along it

For `Oc1ccc(C=C2CCCN=C2c2cccnc2)c(O)c1` [2,4diOHBA, 3-(2,4-dihydroxybenzylidene)anabaseine], the RD production (α7 nAChR) is given as “practically none”.

With `Cc1ccc(C=C2CCCN=C2c2cccnc2)cc1` [4MeBA, 3-(4-methylbenzylidene)anabaseine] the IC50 (α7 nAChR S36G mutant [1]) was 51 µM, the IC50 (α7 nAChR S36I mutant [2]) was 153 µM and the Imax (α7 nAChR S36A mutant [3]) was 0.19(0.04). For the same compound, the EC50 (α7 nAChR S36A mutant [3]) was 7.9 µM, the “desensitized state after high-concentration incubation (PNU-120596 response)” value (WT α7 nAChR [4]) was “induced exclusively into Di” and the Imax (α7 nAChR S36C mutant [5]) was 0.14(0.02). For the same compound, the EC50 (α7 nAChR S36C mutant [5]) was 5.5 µM, the Imax (WT α7 nAChR [6]) was 0.14(0.01) and the EC50 (WT α7 nAChR [6]) was 30 µM and 29 µM. For the same compound, the IC50 (α7 nAChR S36V mutant [7]) was 91 µM, the Imax (α7 nAChR S36G mutant [8]) was 0.31(0.02) and the EC50 (α7 nAChR S36G mutant [8]) was 9.5 µM. The IC50 (α7 nAChR S36T mutant [9]) was 450 µM, the IC50 (α7 nAChR S36A mutant [10]) was 145 µM and the Imax (α7 nAChR S36I mutant [11]) was 0.088(0.007). For the same compound, the EC50 (α7 nAChR S36I mutant [11]) was 17.6 µM, the “reduction of post-control ACh responses” value (WT α7 nAChR [12]; at concentration of greatest evoked response, approximately 300 µM) was 80% and the IC50 (WT α7 nAChR [12]) was 110 µM. The IC50 (α7 nAChR S36C mutant [13]) was 52 µM, the Imax (α7 nAChR S36T mutant [14]) was 0.19(0.02) and the EC50 (α7 nAChR S36T mutant [14]) was 34 µM. The Imax (α7 nAChR S36V mutant [15]) was 0.15(0.04) and the EC50 (α7 nAChR S36V mutant [15]) was 3.5 µM.

With `Oc1ccc(/C=C2\CCCN=C2c2cccnc2)cc1` [4OHBA, (E)-3-(4-hydroxybenzylidene)anabaseine] the IC50 (α7 nAChR S36G mutant [1]) was 134 µM, the IC50 (α7 nAChR S36I mutant [2]) was > 300 µM and the Imax (α7 nAChR S36A mutant [3]) was 0.73(0.03). The EC50 (α7 nAChR S36A mutant [3]) was 0.57 µM, the “induction of Ds (response to PNU-120596 after drug bath)” value (WT α7 nAChR [4]; 30 µM drug bath, 5 minutes, 30 µM PNU-120596) was “relatively little Ds” and the Imax (α7 nAChR S36C mutant [5]) was 0.63(0.02). For the same compound, the EC50 (α7 nAChR S36C mutant [5]) was 0.75 µM, the Imax (WT α7 nAChR [6]) was 0.385(0.006) and the EC50 (WT α7 nAChR [6]) was 6 µM and 5.5 µM. The “ACh control responses after 5-minute incubation” value (α7 nAChR S36G mutant [16]) was “nearly complete suppression of the ACh control responses”, the IC50 (α7 nAChR S36V mutant [7]) was 61 µM and the Imax (α7 nAChR S36G mutant [8]) was 0.89(0.06). The EC50 (α7 nAChR S36G mutant [8]) was 0.53 µM, the IC50 (α7 nAChR S36T mutant [9]) was > 300 µM and the IC50 (α7 nAChR S36A mutant [10]) was 203 µM. For the same compound, the Imax (α7 nAChR S36I mutant [11]) was 0.46(0.03), the EC50 (α7 nAChR S36I mutant [11]) was 2.3 µM and the “recovery during post-control ACh applications after 5-minute incubation” value (WT α7 nAChR [17]; 30 µM drug bath, 5 minutes) was “fully recovered”. For the same compound, the “post-control ACh responses, low versus high concentration incubation” value (WT α7 nAChR [17]; 4OHBA low 3 µM, high 30 µM) was “no significant difference”, the “reduction of post-control ACh responses” value (WT α7 nAChR [12]; at concentrations required for maximal evoked responses, 30 µM – 300 µM) was 10–20% and the “IC50 (RD curve)” value (WT α7 nAChR [12]; potency for producing long-lasting desensitization, 12 s applications) was “far greater than the concentration range studied”. For the same compound, the IC50 (WT α7 nAChR [12]) was > 300 µM, the IC50 (α7 nAChR S36C mutant [13]) was 233 µM and the Imax (α7 nAChR S36T mutant [14]) was 0.50(0.01). The EC50 (α7 nAChR S36T mutant [14]) was 5.9 µM, the Imax (α7 nAChR S36V mutant [15]) was 0.50(0.03) and the EC50 (α7 nAChR S36V mutant [15]) was 0.25 µM.

In the case of `C(=C1CCCN=C1c1cccnc1)c1ccccc1` [BA, benzylidene anabaseine], the IC50 (α7 nAChR S36G mutant [1]) is reported as 357 µM, the IC50 (α7 nAChR S36I mutant [2]) is reported as > 300 µM and the Imax (α7 nAChR S36A mutant [3]) is reported as 0.45(0.02). The EC50 (α7 nAChR S36A mutant [3]) was 27 µM, the “desensitized state after high-concentration incubation (PNU-120596 response)” value (WT α7 nAChR [4]) was “induced exclusively into Di” and the Imax (α7 nAChR S36C mutant [5]) was 0.30(0.01). The EC50 (α7 nAChR S36C mutant [5]) was 22 µM, the Imax (WT α7 nAChR [6]) was 0.31(0.01) and the EC50 (WT α7 nAChR [6]) was 40 µM and 39 µM. For the same compound, the IC50 (α7 nAChR S36V mutant [7]) was 217 µM, the Imax (α7 nAChR S36G mutant [8]) was 0.316(0.003) and the EC50 (α7 nAChR S36G mutant [8]) was 44 µM. For the same compound, the IC50 (α7 nAChR S36T mutant [9]) was 720 µM, the IC50 (α7 nAChR S36A mutant [10]) was 91 µM and the Imax (α7 nAChR S36I mutant [11]) was 0.18(0.02). The EC50 (α7 nAChR S36I mutant [11]) was 81 µM, the IC50 (WT α7 nAChR [12]) was 270 µM and the IC50 (α7 nAChR S36C mutant [13]) was 189 µM. For the same compound, the Imax (α7 nAChR S36T mutant [14]) was 0.19(0.01), the EC50 (α7 nAChR S36T mutant [14]) was 68 µM and the Imax (α7 nAChR S36V mutant [15]) was 0.27(0.05). For the same compound, the EC50 (α7 nAChR S36V mutant [15]) was 27 µM.

For `COc1ccc(/C=C2\CCCN=C2c2cccnc2)c(OC)c1` [GTS-21, 3-(2,4-dimethoxybenzylidene)anabaseine], the RD production (α7 nAChR) is given as “significant amounts of RD”.
